Assay results from patent publication US20150307520A1, “NOVEL HETEROARYL AND HETEROCYCLE COMPOUNDS, COMPOSITIONS AND METHODS THEREOF” (HUTCHISON MEDIPHARMA LIMITED, priority 2012, published 2015).
pIC50: −log10 of the molar value.

How the values were obtained:
Format in all cases: biochemical
[1] = molecular target: p110γ (Homo sapiens, UniProt P48736); assay: Transcreener KINASE Assay, kinase inhibition of p110γ; details: for PI3Kγ IH % @ 1 uM: 1 uM test compound; for pIC50: read-out: PI3Kγ IC50
Summary of the method: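 Recombinant PI3K isoform complexes were tested in a two-step endpoint ADP-detection assay. Kinase reaction ran 80 min at room temperature, followed by 60 min with ADP detection mix. Far-red competitive fluorescence polarization immunoassay read-out; IC50s fitted from the FP data.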

[2] = molecular target: p110β/p85α (Homo sapiens, UniProt P42338); assay: Transcreener KINASE Assay, kinase inhibition of p110β/p85α; details: for PI3Kβ IH % @ 1 uM: 1 uM test compound; for pIC50: read-out: PI3Kβ IC50
Summary of the method: (§1)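 Steps: compound (2% DMSO final) plus enzyme in HEPES/NaCl/EGTA/CHAPS/3 mM MgCl2/1 mM DTT buffer; start with PIP2/ATP addition (30 uM/10 uM solution); 80 min RT; add ADP detection mix, 60 min RT; read fluorescence polarization.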

[3] = molecular target: p110δ/p85α (Homo sapiens, UniProt O00329); assay: Transcreener KINASE Assay, kinase inhibition of p110δ/p85α; details: for PI3Kδ IH % @ 1 uM: 1 uM test compound; for pIC50: read-out: PI3Kδ IC50
Summary of the method: as §1

[4] = molecular target: p110α/p85α (Homo sapiens, UniProt P42336); assay: Transcreener KINASE Assay, kinase inhibition of p110α/p85α; details: for PI3Kα IH % @ 1 uM: 1 uM test compound
Description: PI3K kinases including p110α/p85α, p110δ/p85α and p110γ are purchased from Invitrogen, and p110β/p85α is from Millipore.
Primary screening data and IC50 values are measured using Transcreener™ KINASE Assay (Bellbrook, Catalog #3003-10K). […] It is a universal, homogenous, high throughput screening (HTS) technology using a far-red, competitive fluorescence polarization immunoassay based on the detection of ADP to monitor the activity of enzymes that catalyze group transfer reactions. Briefly, the Transcreener KINASE Assay is designed as a simple two-part, endpoint assay.
In the first step, the 25 ul kinase reaction is performed by preparing a reaction mixture containing 5 ul test compound (2% DMSO final concentration), 10 ul kinase, buffer (50 mM HEPES, 100 mM NaCl, 1 mM EGTA, 0.03% CHAPS, 3 mM MgCl2, and freshly supplemented 1 mM DTT), and 10 ul 30 uM PIP2/10 uM ATP. The plate is sealed and incubated for 80 min at room temperature. Next, 25 ul ADP detection mix is added per well. The plate is sealed again and incubated for 60 min at room temperature, and then measure fluorescence polarization by Tecan Infinite F500 Reader.
Data is analyzed and IC50s are generated using the add-in software for Microsoft Excel, Xlfit™ (version 2.0). IH %=(ADP amount under 2% DMSO-ADP amount under test compound)/ADP amount under 2% DMSO.

Chain of p110γ (P48736 whole entry, canonical isoform): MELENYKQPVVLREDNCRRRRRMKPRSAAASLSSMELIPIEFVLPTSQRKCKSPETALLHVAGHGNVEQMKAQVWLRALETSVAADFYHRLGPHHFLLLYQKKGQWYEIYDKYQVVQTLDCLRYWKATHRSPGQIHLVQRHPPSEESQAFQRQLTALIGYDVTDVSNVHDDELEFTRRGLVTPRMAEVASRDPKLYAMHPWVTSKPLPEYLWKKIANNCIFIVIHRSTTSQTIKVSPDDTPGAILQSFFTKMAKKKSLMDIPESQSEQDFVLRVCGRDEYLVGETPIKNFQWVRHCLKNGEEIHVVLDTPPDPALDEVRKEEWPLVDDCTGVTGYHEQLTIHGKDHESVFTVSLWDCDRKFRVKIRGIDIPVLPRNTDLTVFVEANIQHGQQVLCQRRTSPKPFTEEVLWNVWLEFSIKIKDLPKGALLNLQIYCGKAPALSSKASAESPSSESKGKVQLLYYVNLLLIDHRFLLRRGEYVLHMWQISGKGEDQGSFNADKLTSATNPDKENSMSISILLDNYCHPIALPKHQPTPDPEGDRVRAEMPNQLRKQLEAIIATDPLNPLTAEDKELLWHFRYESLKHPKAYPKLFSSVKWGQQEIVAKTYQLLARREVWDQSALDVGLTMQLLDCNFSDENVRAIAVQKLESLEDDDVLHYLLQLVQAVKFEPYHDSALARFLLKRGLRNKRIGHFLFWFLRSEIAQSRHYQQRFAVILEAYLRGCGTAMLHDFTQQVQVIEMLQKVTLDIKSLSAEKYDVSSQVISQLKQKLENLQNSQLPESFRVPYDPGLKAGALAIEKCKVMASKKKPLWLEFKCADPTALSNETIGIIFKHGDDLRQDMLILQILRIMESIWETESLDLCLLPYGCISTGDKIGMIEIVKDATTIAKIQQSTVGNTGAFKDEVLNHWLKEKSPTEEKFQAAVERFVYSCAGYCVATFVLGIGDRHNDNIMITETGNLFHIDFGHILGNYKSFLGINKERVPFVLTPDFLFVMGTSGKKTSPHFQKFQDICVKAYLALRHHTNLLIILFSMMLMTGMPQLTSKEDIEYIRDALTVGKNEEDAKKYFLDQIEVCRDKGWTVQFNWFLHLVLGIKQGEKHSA
Chain of p110α/p85α (P42336 whole entry): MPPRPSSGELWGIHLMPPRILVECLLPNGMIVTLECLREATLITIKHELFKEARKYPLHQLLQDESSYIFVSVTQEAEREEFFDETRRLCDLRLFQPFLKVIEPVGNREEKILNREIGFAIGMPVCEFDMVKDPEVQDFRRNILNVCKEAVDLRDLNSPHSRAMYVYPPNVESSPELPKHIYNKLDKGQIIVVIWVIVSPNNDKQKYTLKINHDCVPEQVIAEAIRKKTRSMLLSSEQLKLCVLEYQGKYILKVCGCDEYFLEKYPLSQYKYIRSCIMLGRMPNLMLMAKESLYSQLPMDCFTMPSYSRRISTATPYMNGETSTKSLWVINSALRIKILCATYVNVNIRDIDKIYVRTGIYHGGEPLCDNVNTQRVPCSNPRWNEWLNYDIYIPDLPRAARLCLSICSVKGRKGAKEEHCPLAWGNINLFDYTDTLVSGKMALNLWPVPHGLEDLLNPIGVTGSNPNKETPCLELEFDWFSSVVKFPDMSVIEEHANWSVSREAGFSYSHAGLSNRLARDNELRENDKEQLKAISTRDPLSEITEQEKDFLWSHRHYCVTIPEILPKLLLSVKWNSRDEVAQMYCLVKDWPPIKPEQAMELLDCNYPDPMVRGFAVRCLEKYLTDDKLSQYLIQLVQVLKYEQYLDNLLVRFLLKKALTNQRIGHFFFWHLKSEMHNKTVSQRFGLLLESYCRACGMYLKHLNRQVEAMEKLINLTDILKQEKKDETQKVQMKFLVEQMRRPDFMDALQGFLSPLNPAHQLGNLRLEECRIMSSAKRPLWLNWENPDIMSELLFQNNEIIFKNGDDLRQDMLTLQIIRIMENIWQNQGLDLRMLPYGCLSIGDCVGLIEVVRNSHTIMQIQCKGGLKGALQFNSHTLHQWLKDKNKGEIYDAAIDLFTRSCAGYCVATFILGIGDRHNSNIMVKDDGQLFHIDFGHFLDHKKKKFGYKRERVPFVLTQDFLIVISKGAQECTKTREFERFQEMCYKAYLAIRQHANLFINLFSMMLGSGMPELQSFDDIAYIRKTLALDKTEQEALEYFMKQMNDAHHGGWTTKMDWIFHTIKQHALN
Chain of p110α/p85α (P27986 whole entry partner): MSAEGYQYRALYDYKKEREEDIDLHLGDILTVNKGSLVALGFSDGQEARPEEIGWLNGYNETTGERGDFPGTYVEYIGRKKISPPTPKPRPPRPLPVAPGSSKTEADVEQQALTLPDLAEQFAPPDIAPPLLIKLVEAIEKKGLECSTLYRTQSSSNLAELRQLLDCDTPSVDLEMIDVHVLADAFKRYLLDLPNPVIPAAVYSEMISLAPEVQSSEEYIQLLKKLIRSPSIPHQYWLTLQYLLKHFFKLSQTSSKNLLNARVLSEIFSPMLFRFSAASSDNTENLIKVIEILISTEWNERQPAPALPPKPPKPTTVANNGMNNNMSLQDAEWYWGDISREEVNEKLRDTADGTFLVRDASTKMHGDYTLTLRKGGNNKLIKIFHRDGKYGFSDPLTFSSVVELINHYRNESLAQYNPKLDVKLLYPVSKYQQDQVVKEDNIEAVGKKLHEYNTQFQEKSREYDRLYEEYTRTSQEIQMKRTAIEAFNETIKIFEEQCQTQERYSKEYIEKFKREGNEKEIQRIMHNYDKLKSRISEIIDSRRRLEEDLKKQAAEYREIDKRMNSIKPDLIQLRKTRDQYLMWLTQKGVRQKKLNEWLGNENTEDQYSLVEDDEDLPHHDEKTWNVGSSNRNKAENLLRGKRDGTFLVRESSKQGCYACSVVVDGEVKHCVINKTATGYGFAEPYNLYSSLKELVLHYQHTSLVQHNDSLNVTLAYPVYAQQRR
Chain of p110β/p85α (P42338 whole entry): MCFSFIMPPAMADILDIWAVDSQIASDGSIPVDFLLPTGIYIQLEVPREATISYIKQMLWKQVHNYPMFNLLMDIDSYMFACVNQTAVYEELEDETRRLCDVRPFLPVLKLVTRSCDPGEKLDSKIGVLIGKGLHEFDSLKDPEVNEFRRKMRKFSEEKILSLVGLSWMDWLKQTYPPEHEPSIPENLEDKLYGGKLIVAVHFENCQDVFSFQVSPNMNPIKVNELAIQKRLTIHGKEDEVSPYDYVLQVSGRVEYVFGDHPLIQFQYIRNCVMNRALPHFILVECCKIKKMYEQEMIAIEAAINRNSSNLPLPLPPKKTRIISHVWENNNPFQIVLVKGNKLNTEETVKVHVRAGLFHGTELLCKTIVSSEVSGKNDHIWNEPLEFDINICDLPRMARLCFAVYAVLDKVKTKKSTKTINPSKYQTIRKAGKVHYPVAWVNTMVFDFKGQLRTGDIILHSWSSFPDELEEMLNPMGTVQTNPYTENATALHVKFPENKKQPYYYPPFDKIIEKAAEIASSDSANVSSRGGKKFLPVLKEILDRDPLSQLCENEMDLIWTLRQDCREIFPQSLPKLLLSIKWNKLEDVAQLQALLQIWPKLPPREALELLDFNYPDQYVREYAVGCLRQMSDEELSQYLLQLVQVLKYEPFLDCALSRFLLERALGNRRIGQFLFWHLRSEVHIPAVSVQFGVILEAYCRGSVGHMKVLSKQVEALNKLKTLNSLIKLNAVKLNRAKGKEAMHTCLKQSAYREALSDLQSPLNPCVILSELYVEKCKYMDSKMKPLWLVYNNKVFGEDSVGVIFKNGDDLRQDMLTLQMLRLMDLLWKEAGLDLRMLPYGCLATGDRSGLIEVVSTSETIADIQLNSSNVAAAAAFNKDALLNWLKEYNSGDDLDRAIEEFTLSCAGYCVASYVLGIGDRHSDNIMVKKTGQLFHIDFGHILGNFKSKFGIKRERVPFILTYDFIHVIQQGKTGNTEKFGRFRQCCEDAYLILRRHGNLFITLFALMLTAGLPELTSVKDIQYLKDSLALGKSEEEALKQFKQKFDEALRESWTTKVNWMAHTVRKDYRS
Chain of p110β/p85α (P27986 2-724 partner): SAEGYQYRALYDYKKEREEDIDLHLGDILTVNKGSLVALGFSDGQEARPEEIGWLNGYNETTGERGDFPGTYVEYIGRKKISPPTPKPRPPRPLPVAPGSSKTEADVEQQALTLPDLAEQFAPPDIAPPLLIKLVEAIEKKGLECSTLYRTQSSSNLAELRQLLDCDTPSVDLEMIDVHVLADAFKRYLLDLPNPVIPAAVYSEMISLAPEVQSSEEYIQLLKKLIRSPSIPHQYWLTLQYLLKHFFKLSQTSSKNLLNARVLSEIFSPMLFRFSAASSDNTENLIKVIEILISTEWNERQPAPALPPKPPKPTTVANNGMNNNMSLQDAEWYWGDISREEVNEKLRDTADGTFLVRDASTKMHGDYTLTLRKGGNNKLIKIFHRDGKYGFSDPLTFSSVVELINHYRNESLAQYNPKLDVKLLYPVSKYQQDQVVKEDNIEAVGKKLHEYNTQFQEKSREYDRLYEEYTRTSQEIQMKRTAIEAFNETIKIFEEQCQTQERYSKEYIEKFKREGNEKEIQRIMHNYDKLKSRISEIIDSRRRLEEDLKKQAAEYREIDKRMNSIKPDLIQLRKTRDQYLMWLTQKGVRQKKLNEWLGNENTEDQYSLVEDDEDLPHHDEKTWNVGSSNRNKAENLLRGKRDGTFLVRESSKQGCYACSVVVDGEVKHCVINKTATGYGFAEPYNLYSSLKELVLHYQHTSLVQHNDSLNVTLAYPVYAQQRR

| SMILES | PI3Kγ IH % @ 1 uM [1] | PI3Kβ IH % @ 1 uM [2] | PI3Kδ IH % @ 1 uM [3] | PI3Kα IH % @ 1 uM [4] | pIC50 [2] | pIC50 [3] | pIC50 ([4]; read-out: PI3Kα IC50) | pIC50 [1] |
| --- | --- | --- | --- | --- | --- | --- | --- | --- |
| N#Cc1c[nH]c2ncnc(N3CC[C@H]3c3nn4cccc4c(=O)n3-c3ccccc3)c12 [Compound 6] | 58.6% | 28.0% | 91.5% | −10.6% | – | – | – | – |
| O=c1c2cccn2nc([C@@H]2CCN2c2ncnc3[nH]cnc23)n1-c1ccccc1 [Compound 7] | 16.6% | 17.7% | 50.4% | −18.6% | – | – | – | – |
| N#Cc1c[nH]c2ncnc(N3CCC[C@H]3c3nn4ccc(Cl)c4c(=O)n3-c3ccccc3)c12 [Compound 25] | 98.6% | 93.7% | >100% | 80.9% | 7.47 | 9.00 | – | – |
| O=c1c2c(Cl)ccn2nc([C@@H]2CCCN2c2ncnc3[nH]cnc23)n1-c1ccccc1 [Compound 26] | 93.3% | 88.7% | >100% | 20.3% | 7.04 | 8.70 | – | – |
| CC(=O)c1cnc(N)nc1N1CC[C@H]1c1nn2ccc(Cl)c2c(=O)n1-c1ccccc1 [Compound 299] | – | 38.6% | 99.4% | – | 6.19 | 8.22 | 5.53 | – |
| C[C@H]1CN(c2ncnc3[nH]cc(C#N)c23)[C@@H]1c1nn2ccc(Cl)c2c(=O)n1-c1ccc(F)cc1 [Compound 468] | 96.6% | 74.0% | >100% | – | 6.51 | 7.70 | – | – |
| Cc1nc(N)nc(N2C[C@H](C)[C@H]2c2nn3ccc(Cl)c3c(=O)n2-c2ccccc2)n1 [Compound 469] | 90.5% | 47.1% | >100% | – | – | 7.72 | – | 7.29 |
| CC(=O)c1cnc(N)nc1N1CC[C@@H]1c1nn2ccc(Cl)c2c(=O)n1-c1ccccc1 [Compound 470] | 36.6% | 4.9% | 27.8% | – | – | – | – | – |
| CC(=O)c1cnc(N)nc1N1CCC1c1nn2ccc(Cl)c2c(=O)n1-c1ccccn1 (stereo not shown) [Compound 474] | 98.2% | 48.3% | 99.3% | – | – | 8.15 | – | 8.05 |
| C[C@H]1CN(c2ncnc3[nH]cc(C#N)c23)[C@@H]1c1nn2ccc(Cl)c2c(=O)n1-c1ccccn1 [Compound 476] | 89.5% | 78.1% | 95.9% | – | 7.10 | 9.00 | – | 7.62 |
| C[C@H]1CN(c2nc(N)ncc2C#N)[C@@H]1c1nn2ccc(Cl)c2c(=O)n1-c1ccccn1 [Compound 477] | 76.1% | 31.7% | >100% | – | – | 7.24 | – | 6.45 |
| Cc1nc(N)nc(N2C[C@H](C)[C@H]2c2nn3ccc(Cl)c3c(=O)n2-c2ccccn2)c1C#N [Compound 478] | >100% | 96.4% | >100% | – | 7.49 | 9.00 | – | 8.52 |
| CC(=O)c1cnc(N)nc1N1CC[C@H]1c1nn2ccc(Cl)c2c(=O)n1-c1cccc(C)n1 [Compound 479] | 94.7% | 20.1% | 91.6% | – | – | 8.00 | – | 6.92 |
| N#Cc1c(N)nc(N)nc1N1CCC1c1nn2ccc(Cl)c2c(=O)n1-c1ccccc1 (stereo not shown) [Compound 482] | >100% | 91.9% | >100% | – | 6.58 | 9.00 | – | 8.15 |
| CC(=O)c1cnc(N)nc1N1CC(C)(C)[C@H]1c1nn2ccc(Cl)c2c(=O)n1-c1ccccc1 [Compound 485, (S)-2-(1-(5-acetyl-2-aminopyrimidin-4-yl)-3,3-dimethylazetidin-2-yl)-5-chloro-3-phenylpyrrolo[2,1-f][1,2,4]triazin-4(3H)-one] | 45.2% | −2.1% | >100% | – | – | 7.02 | – | – |

Now from value to compound:

| PI3Kγ IH % @ 1 uM [1] | PI3Kβ IH % @ 1 uM [2] | PI3Kδ IH % @ 1 uM [3] | PI3Kα IH % @ 1 uM [4] | pIC50 [2] | pIC50 [3] | pIC50 ([4]; read-out: PI3Kα IC50) | pIC50 [1] | SMILES |
| --- | --- | --- | --- | --- | --- | --- | --- | --- |
| 87.3% | 29.1% | 95.9% | – | – | 7.74 | – | 7.20 | N#Cc1c[nH]c2ncnc(N3CC[C@H]3c3nn4ccc(C(F)(F)F)c4c(=O)n3-c3ccccc3)c12 [Compound 488] |
| >100% | 33.4% | 96.6% | – | – | 7.27 | – | 7.82 | C[C@H]1CN(c2nc(N)ncc2C#N)[C@@H]1c1nn2ccc(C(F)(F)F)c2c(=O)n1-c1ccccc1 [Compound 490] |
| 91.1% | 67.6% | >100% | – | – | 8.22 | – | 7.96 | Cc1nc(N)nc(N2CC[C@H]2c2nn3ccc(C#N)c3c(=O)n2-c2ccccc2)c1C#N [Compound 497, (S)-2-(1-(2-amino-5-cyano-6-methylpyrimidin-4-yl)azetidin-2-yl)-4-oxo-3-phenyl-3,4-dihydropyrrolo[2,1-f][1,2,4]triazine-5-carbonitrile] |
| 96.0% | 86.1% | >100% | – | 7.08 | 8.70 | – | 8.30 | Cc1nc(N)nc(N2C[C@H](C)[C@H]2c2nn3ccc(C#N)c3c(=O)n2-c2ccccc2)c1C#N [Compound 499] |
| 98.7% | 71.5% | 95.4% | – | 6.17 | 8.22 | – | 8.15 | CC(=O)c1cnc(N)nc1N1C[C@H](C)[C@H]1c1nn2ccc(C#N)c2c(=O)n1-c1ccccc1 [Compound 500] |
| >100% | 24.0% | 91.8% | – | – | 7.11 | – | – | C[C@H]1CN(c2nc(N)ncc2C#N)[C@@H]1c1nn2ccc(C#N)c2c(=O)n1-c1ccccc1 [Compound 501] |
| 66.4% | 33.6% | 66.2% | – | – | – | – | – | Cc1nc(N)nc(N2CC[C@H]2c2nn3c(C)cc(Cl)c3c(=O)n2-c2ccccc2)c1C#N [Compound 502] |
| 63.0% | 6.2% | 49.2% | – | – | – | – | – | CC(=O)c1cnc(N)nc1N1CC[C@H]1c1nn2c(C)cc(Cl)c2c(=O)n1-c1ccccc1 [Compound 503] |
| >100% | 75.6% | >100% | – | 6.92 | 8.70 | – | 8.70 | C[C@H]1CN(c2nc(N)nc(N)c2C#N)C1c1nn2ccc(Cl)c2c(=O)n1-c1cccc(F)c1 (stereo partly shown) [Compound 504] |
